Where a name gives a salt, the structure may show the parent alone.
Experiments:
[1] = system: whole blood in vitro thrombosis of normal rats; assay: Anti-thrombosis experiment: whole blood in vitro thrombosis after in vitro administration (in vitro thrombosis instrument method); conditions: Rattus norvegicus, read-out: Thrombosis inhibition rates
Description: ii) Experimental animals: Wistar, which is a male rat outbreeding closed system, purchased from the Institute of Laboratory Animal Sciences, Chinese Academy of Medical Sciences, weighing 242±11.2 g, the animals are divided into 5 groups with 10 animals in each group.
Experiment in vitro: the dose is 1.56 mg/kg, 3.12 mg/kg, 6.25 mg/kg, and the animals are administered once directly.
Blank control, the animals are administered with the same volume of distilled water in the experiment in vivo; and administered with the same volume of saline in the experiment in vitro;

rat in vitro thrombosis = assay: Anti-thrombosis experiment: rat in vitro thrombosis after oral administration (artery-jugular vein blood flow bypass method); type: in vivo, rat (Wistar, male)
Description: 1. Rat in vitro general artery-jugular vein blood flow in the bypass method (please refer to “Journal of Changchun University of Traditional Chinese Medicine”, 2011, Volume 27, Issue 4, Pages 514-518, Yunfei Sun, Min Shi, “Study on the Effect of Pueraria Injection on Thrombosis Formation, Cerebral Ischemia and Platelet Aggregation in Rats);
1. Experiment in vivo: the dose is 50 mg/kg, 100 mg/kg, 200 mg/kg, and the animals are administered intragastrically once daily at 1 ml/100 g […] for 3 consecutive days;
2. Positive control, the animals are administered with acetylsalicylic acid (produced by Northwest Second Synthetic Pharmaceutical Factory) at 45 mg/kg in the experiment in vivo.

[2] = Experiment of solubility: solvent equilibrium experiment in methanol, gravimetric analysis; type: physicochemical; conditions: for solubility (solvent equilibrium experiment): methanol, 25°C, at least 20 hours, gravimetric, approximate
Description: in the water bath at 25±5° C., the solvent equilibrium experiment was performed on the above materials for at least 20 hours by using 1 mL methanol, then the solution was filtered and dried in the air for 10 minutes, and after the solvent was evaporated under vacuum, the approximate solubilities of the above materials in the solvent was measured through gravimetric analysis, with results shown in table 1.

[3] = system: euglobulin lysis time of guinea pigs; assay: Euglobulin lysis time of guinea pigs (antithrombotic effect research 1); type: in vivo; conditions: for antithrombotic effect after oral administration, in words: conclusion from table 6, guinea pigs; for Optimal dissolution times (X ± s), after administration / Fibrinolytic enzyme activities, after administration / Optimal dissolution times (X ± s), before administration / Fibrinolytic enzyme activities, before administration: guinea pigs; for Optimal dissolution times (X ± s), after administration: 30 minutes after last administration; for Fibrinolytic enzyme activities, after administration / Fibrinolytic enzyme activities, before administration: =10000/optimal dissolution time (min); for Optimal dissolution times (X ± s), before administration / Fibrinolytic enzyme activities, before administration: baseline before administration
Description: 30 guinea pigs were taken and randomly divided into five groups, each group was administered intragastrically with 25 mg/kg pueraria daidzein, 36 mg/kg compound of the example of the present application, 47 mg/kg 4,7-disubstituted daidzein, 36 mg/kg 4-substituted daidzein, and 36 mg/kg USP compound (the converted dose of each compound is equivalent to the dose of the daidzein, since the daidzein is difficult to dissolve in water, 50% propylene glycol aqueous solution is used to dissolve, and other compounds were dissolved with water to achieve a suitable concentration), 1.5 ml blood was taken from the heart before administration, and after 7 consecutive days of administration, 1.5 ml blood was taken from the heart 30 minutes after the last administration, and put into a sodium citrate anti-cruor tube, and the plasma was separated by centrifugation, then 0.5 ml plasma was taken and added with 9 ml distilled water and 0.1 ml of 1% acetic acid solution, and the mixture was centrifugated after being refrigerated for 30 minutes, then the resulting precipitate was dissolved with 0.5 ml sodium borate buffer (pH9.0), and the dissolution time was recorded as euglobulin lysis time, it can be obtained through calculation that fibrinolytic enzyme activity (u)=10000/optimal dissolution time (min).

decapitated mice = assay: Acute cerebral ischemia in mice (gasping time of decapitated mice); type: in vivo; conditions: for effect on acute ischemia tolerance time, in words: conclusion from table 5, mice, intraperitoneal; for Gasping times (X ± s) / Prolongation rates (gasping time): decapitated mice; for Gasping times (X ± s): 20 min after administration, n = 10, control group 18.5 ± 3.1; for Prolongation rates (gasping time): versus control group
Description: 70 mice were taken and randomly divided into seven groups, except the blank group which was not administered and the saline group which was administered with the same volume of saline, the remaining five groups were respectively injected intraperitoneally with 25 mg/kg pueraria daidzein, 36 mg/kg compound of the example of the present application, 47 mg/kg 4,7-disubstituted daidzein, 36 mg/kg 4-substituted daidzein and 36 mg/kg USP compound (the converted dose of each compound is equivalent to the dose of the daidzein, since the daidzein is difficult to dissolve in water, 50% propylene glycol aqueous solution is used to dissolve, and other compounds were dissolved with water to achieve a suitable concentration), 20 min after administration, the mice were decapitated rapidly from behind the ear, then the time starting from decapitation to the last gasp was recorded.

thrombus = assay: Formation time and length of thrombus in rabbit blood, thrombosis instrument (antithrombotic effect research 2); type: in vivo, rabbits; conditions: for antithrombotic effect after oral administration, in words: conclusion from table 7, rabbits; for Lengths of thrombus, after administration / Thrombus formation times (X ± s), after administration / Lengths of thrombus, before administration / Thrombus formation times (X ± s), before administration: rabbits; for Lengths of thrombus, after administration: 15 minutes rotation; for Thrombus formation times (X ± s), after administration: 30 minutes after last administration; for Lengths of thrombus, before administration / Thrombus formation times (X ± s), before administration: baseline before administration
Description: 30 rabbits were taken and randomly divided into five groups, each group was administered intragastrically with 15 mg/kg pueraria daidzein, 22 mg/kg compound of the example of the present application, 28 mg/kg 4,7-disubstituted daidzein, 22 mg/kg 4-substituted daidzein and 22 mg/kg USP compound (the converted dose of each compound is equivalent to the dose of the daidzein, since the daidzein is difficult to dissolve in water, 50% propylene glycol aqueous solution is used to dissolve, and other compounds were dissolved with water to achieve a suitable concentration), 2 ml blood was taken from the heart before administration, and after 7 consecutive days of administration, 2 ml blood was taken from the heart 30 minutes after the last administration, and injected immediately into the rotating ring of the thrombosis instrument, and rotated at 15-17 rpm under 37° C., and the rotating time of the thrombus alone with the ring was recorded, which is defined as thrombus formation time of fibrin, the rotation was stopped after 15 minutes, the thrombus was taken out, and the length of the thrombus was measured.

[4] = system: mice with hypoxia tolerance at normal pressure; assay: Hypoxia tolerance of mice at normal pressure (survival time in closed jar); type: in vivo; conditions: for effect on hypoxia tolerance time, in words: conclusion from table 4, mice, intraperitoneal; for Survival times (X ± s) / Prolongation rates (survival time): mice; for Survival times (X ± s): 20 min after administration, n = 10, control group 22.5 ± 2.6; for Prolongation rates (survival time): versus control group
Description: 70 mice were taken and randomly divided into seven groups, except the blank group which was not administered and the saline group which was administered with the same volume of saline, the remaining five groups were respectively injected intraperitoneally with 25 mg/kg pueraria daidzein, 36 mg/kg compound of the example of the present application, 47 mg/kg 4,7-disubstituted daidzein, 36 mg/kg 4-substituted daidzein and 36 mg/kg USP compound (the converted dose of each compound is equivalent to the dose of the daidzein, since the daidzein is difficult to dissolve in water, 50% propylene glycol aqueous solution is used to dissolve, and other compounds were dissolved with water to achieve a suitable concentration), 20 min after administration, the mice were put into a 250 ml grinding jar (where 10 g soda lime was placed), with one mouse in each jar, and the jar was capped tightly after the mouse was put into the jar, then the survival time of the mice was immediately recorded by a stopwatch.

[5] = 15 mg/kg intragastrically 7 consecutive days
[6] = 36 mg/kg intragastrically 7 consecutive days
[7] = 36 mg/kg intragastrically 7 days
[8] = 22 mg/kg intragastrically 7 consecutive days

Structure (SMILES) | solubility (solvent equilibrium experiment) [2] | Optimal dissolution times (X ± s), after administration [3, 6] | Fibrinolytic enzyme activities, after administration [3, 7] | Optimal dissolution times (X ± s), before administration ([3]; 36 mg/kg group) | Fibrinolytic enzyme activities, before administration ([3]; 36 mg/kg group) | Gasping times (X ± s) (decapitated mice; 36 mg/kg intraperitoneally) | Prolongation rates (gasping time) (decapitated mice; 36 mg/kg intraperitoneally) | Lengths of thrombus, after administration (thrombus; [8]) | Thrombus formation times (X ± s), after administration (thrombus; [8]) | Lengths of thrombus, before administration (thrombus; 22 mg/kg group) | Thrombus formation times (X ± s), before administration (thrombus; 22 mg/kg group) | Survival times (X ± s) ([4]; 36 mg/kg intraperitoneally) | further results
CC(=O)Oc1ccccc1C(=O)O [Acetylsalicylic acid, acetylsalicylic acid] | – | – | – | – | – | – | – | – | – | – | – | – | inhibition at 1.46 mg/kg [1]: 32.1%; inhibition at 45 mg/kg (rat in vitro thrombosis; po, rat, 45 mg/kg, positive control, read-out: Thrombosis inhibition rates): 58.7%; Wet weights of thrombus (rat in vitro thrombosis; rat, 45 mg/kg, positive control, n = 10, saline group 30.18 ± 3.12): 11.38 ± 1.47 mg
CCN(CC)CC(=O)Oc1ccc2c(=O)c(-c3ccc(O)cc3)coc2c1 [7-O-N,N-diethyl-aminoacetyl daidzein, 7-O—N,N-diethyl-aminoacetyl daidzein] | 16.3 mg/g | – | – | – | – | – | – | – | – | – | – | – | –
O=c1c(-c2ccc(O)cc2)coc2cc(O)ccc12 [Pueraria daidzein, daidzein] | 16.8 mg/g | – | – | – | – | – | – | – | – | – | – | – | antithrombotic effect after oral administration, in words [3]: weak antithrombotic effect; Optimal dissolution times (X ± s), after administration ([3]; 25 mg/kg intragastrically 7 consecutive days): 27.3 ± 8.4 min; Fibrinolytic enzyme activities, after administration ([3]; 25 mg/kg intragastrically 7 days): 366.3 u; Optimal dissolution times (X ± s), before administration ([3]; 25 mg/kg group): 34.5 ± 10.1 min; Fibrinolytic enzyme activities, before administration ([3]; 25 mg/kg group): 289.9 u; effect on acute ischemia tolerance time, in words (decapitated mice): poor effect; Gasping times (X ± s) (decapitated mice; 25 mg/kg intraperitoneally): 23.1 ± 6.2 s; Prolongation rates (gasping time) (decapitated mice; 25 mg/kg intraperitoneally): 24.9%; antithrombotic effect after oral administration, in words (thrombus): weak antithrombotic effect; Lengths of thrombus, after administration (thrombus; [5]): 12.8 ± 1.49 cm; Thrombus formation times (X ± s), after administration (thrombus; [5]): 7.18 ± 1.27 min; Lengths of thrombus, before administration (thrombus; 15 mg/kg group): 14.2 ± 1.95 cm; Thrombus formation times (X ± s), before administration (thrombus; 15 mg/kg group): 6.21 ± 1.23 min; effect on hypoxia tolerance time, in words [4]: poor effect; Survival times (X ± s) ([4]; 25 mg/kg intraperitoneally): 28.1 ± 5.3 min; Prolongation rates (survival time) ([4]; 25 mg/kg intraperitoneally): 24.9%
O=C(CCl)Oc1ccc2c(=O)c(-c3ccc(O)cc3)coc2c1 [7-O-chloroacetyl daidzein] | 17.6 mg/g | – | – | – | – | – | – | – | – | – | – | – | –
CCN(CC)CC(=O)Oc1ccc(-c2coc3cc(O)ccc3c2=O)cc1 [4-substituted daidzein] | – | 29.3 ± 5.7 min | 341.3 u | 30.3 ± 9.4 min | 330.0 u | 20.3 ± 8.1 s | 9.7% | 14.1 ± 2.17 cm | 7.25 ± 1.34 min | 14.7 ± 2.02 cm | 6.44 ± 1.71 min | 21.1 ± 6.4 min | –
CCN(CC)CC(=O)Oc1ccc2c(=O)c(-c3ccc(O)cc3)coc2c1 | – | 20.6 ± 5.5 min | 485.4 u | 33.6 ± 11.1 min | 297.6 u | 26.7 ± 4.8 s | 44.3% | 10.7 ± 1.96 cm | 8.17 ± 1.54 min | 14.9 ± 1.27 cm | 6.29 ± 1.31 min | 35.1 ± 6.6 min | antithrombotic effect after oral administration, in words [3]: significant efficacy; effect on acute ischemia tolerance time, in words (decapitated mice): significantly prolong; antithrombotic effect after oral administration, in words (thrombus): significant efficacy; effect on hypoxia tolerance time, in words [4]: significantly prolong; Prolongation rates (survival time) ([4]; 36 mg/kg intraperitoneally): 56%
CN(C)CCCC(=O)Oc1ccc2c(=O)c(-c3ccc(O)cc3)coc2c1 [USP compound, 7-O—N,N-dimethyl-aminobutyryl daidzein] | – | 25.7 ± 7.7 min | 389.1 u | 35.5 ± 8.2 min | 281.7 u | 23.5 ± 7.2 s | 27% | 11.8 ± 2.01 cm | 7.31 ± 1.72 min | 14.1 ± 3.84 cm | 6.37 ± 1.72 min | 24.6 ± 5.7 min | Prolongation rates (survival time) ([4]; 36 mg/kg intraperitoneally): 9.3%
CCN(CC)CC(=O)Oc1ccc2c(=O)c(-c3ccc(O)cc3)coc2c1 [7-O—N,N-diethyl-aminoacetyl daidzein hydrochloride] | – | – | – | – | – | – | – | – | – | – | – | – | solubility, in words ([2]; conclusion from table 1, methanol 25°C): higher solubility; solubility (solvent equilibrium experiment) ([2]; hydrochloride): 25 mg/g; antithrombotic effect, in words (rat in vitro thrombosis; conclusion from table 2 and table 3 (oral and in vitro administration, rat)): good antithrombotic effect

Reference: US9266852B2, “Daidzein derivative, pharmaceutically acceptable salt and preparation method thereof, and pharmaceutical composition containing same” (ANHUI BIOCHEM BIO-PHARMACEUTICAL CO., LTD, priority 2011, dated 2016)
